Experimental data reported in patent US20130040882A1, “USE OF FIBROBLAST GROWTH FACTOR FRAGMENTS” (NOVARTIS AG, priority 2003, published 2013).
“And” between values parts separate entries of the source, which are not always exact repeats. Identical values can stand only once. “Also recorded” adds a separate entry of the source.

Key:
bone tissue = test: Salmon calcitonin/PTS893 monkey study: histomorphometry of bone tissue (tibia, vertebra); assay type: in vivo, cynomolgus monkeys (Macaca fascicularis)
Description: Bone sections were stained for osteonectin, osteopontin and osteocalcin and were evaluated histopathologically. Histomorphometry of the bone tissue was performed regarding parameters for bone resorption and synthesis (osteoid formation).
Histomorphometry of bone tissue was performed to determine parameters related to bone resorption and bone synthesis (osteoid formation).

somatostatin receptors = conditions: cited from earlier work
[1] = tested on: transcript levels in several organs; test: In vivo gene expression profiling screen of peptides in mice (Example I); conditions: administration to mice
Description: In this EXAMPLE, 100 unknown chemically synthesized peptides are functionalized using the discovery method of the invention. Most of these peptides are present in human plasma.
As a control, twenty reference drugs are concurrently investigated with the discovery method of the invention. For this screening, one control and four treated groups of six males are treated for two weeks by daily administration by the subcutaneous route of the proteins. The reference drugs can be active for treating conditions in the areas of glaucoma, neuroprotection, neovascularisation, antiangiogenesis, acne, asthma and allergy, cardiovascular diseases, neurological disorder, pain, diabetes, hypercholesterolemia, osteoporosis and oncology.
The expectations from those selected active peptides are that (a) several potential therapeutic drugs could be identified; (b) target peptides for therapeutic antibodies could be identified; (c) new targets for research, deduced from the reconstructed biochemical pathways, could be identified; and (d) biomarkers, to be used to develop diagnostic tests could be identified. […] The protein/peptide selection rate is approximately 20%. The selection/prioritization criteria are the type of activity, the therapeutic interest and the suspected toxicity.

[2] = tested on: hyperoxia-induced angioproliferative retinopathy; test: Hypoxic vascular retinopathy mouse model: proliferation score on retinal flatmounts after intravitreal injection; assay type: in vivo, C57/B16J mice; parameters: key to blood vessel tufts: points summed over zones; Zone 2 max 4 P, Zones 3 and 4 max 12 P; avascular zone: scale not given here
Description: Seven days old C57/B16J mice are put together with their nursing parent in a sealed container ventilated by a mixture of oxygen and compressed air to a final oxygen concentration of 75%±2% until day 12. Returned at room air, the animals develop a relative ischemia of the retina with neovascularization starting as early as day 14.
On day 12, when animals returned from the oxygen incubation, a volume of 2.0 μl is injected in the eye using a glass pipette with a diameter of about 150 μm at its tip.
For the intravitreal injection of a substance at day 12, mice are anesthetized by inhalation of isoflurane. Five days later the animals are sacrificed after perfusion with dextran-fluorescein and retinal flatmounts are prepared. The coded whole mounts allow to evaluate the vascular changes of the retinal blindly. The proliferation score includes quantification of the proliferation including the papilla, vascular development, vasoconstriction, retinal bleeding and tortuosity of the vessels, features also seen in human retinal disease.
Of those, 8 animals died during hyperoxia or after injection, 2 animals are not perfused, 5 animals are paraffin embedded for evaluation of neurons, of which only three could be examined, and from 29 of these animals retinal flatmounts are prepared.
Evaluation of the angioproliferative changes in the retinal preparations is performed in a masked way on coded preparations. […] The following features are taken into consideration: neovascularisation of the optic disc, blood vessel tufts formation, large clusters of blood vessel tufts, central vasoconstriction and tortuosity of the vessels. Retinal haemorrhages are not taken into account as they may also result from the intraocular injection.
For each criteria, a defined number of points (P) is assigned, which are summed up to a total proliferation score. The higher the score, the worse the hypoxia induced retinopathy. In detail:
Neovascularisation of the optic disc: either 1 or 0 points are assigned in case optic disc proliferation is measured (1 P) or absence (0 P).
Blood vessel tufts formation: the score for blood vessel tufts is determined by dividing every clock hour of the preparation surface in 4 zones: Zone 1 (optic disc zone) is evaluated in addition; Zone 2: one point for every wing (maximal 4 P); Zone 3: one point for every clock hour (maximal 12 P); and Zone 4: one point for every clock hour (maximal 12 P). Thus, a maximum of 28 points is measured provided that no avascular areas exist, and a maximum of 12 points is calculated in case of complete avascularization.
Large clusters of blood vessel tufts: every large cluster of blood vessel tufts covering more than 3 sectors is counted as one point. Thus, maximal 8 points can be measured provided that no avascular areas exist, and maximal 4 points are assignable for complete avascularization.
Central vasoconstriction: 1 point is assigned to a vasoconstriction of zone 1 of greater than 50%; 1 point is allocated if the vasoconstriction is greater than 50% of every wing of zone 2 and 3. Thus, maximal 1 point can be assigned to zone 1, and maximal 4 points each for zones 2, 3 and 4. Since so far no vasoconstriction is ever observed for zone 4, a maximum of total 9 points (without zone 4) can be allotted.
Tortuosity of the vessels: 2 points are assigned if less than one-third of the vessels are tortuous; if the amount of tortuous blood vessels is between one-third and two-thirds, 4 points are allocated, and in case more than two-thirds of the vessels are tortuous, than 6 points are given.
Proliferation in avascular zones is never observed. This is in principle a mutual exclusion of criteria; the existence of vascular proliferations has a higher impact on the retinopathy score than large avascular areas. Therefore, the maximum score ever counted with this system is 38 points using a substance which is considered to enhance vascular proliferation.
The severity of retinopathy varies from animal to animal. […]

[3] = tibia, group mean (males and females)
[4] = tibia, individual animals (males and females)
[5] = vertebra, group mean (males and females)
[6] = vertebra, individual animals (males and females)
[7] = right eye, FGF23CTP intravitreal, individual animals, retinal flatmounts
[8] = treated right eye (FGF23CTP) vs control left eye (PBS), DF 28

## Leu8, Asp10, Lysll, A1a16, G1n18, Thr33, A1a34 human PTH 1-34 [PTS893, Leu8, Asp10, Lysll, A1a16, G1n18, Thr33, A1a34 human PTH 1-34 [hPTH(1-34)]]
Bone tissue; tibia
  Increase in osteoid surface: 49%
  Increase in osteoid volume: 37%
  Increase in the osteoblast surface: 40%
Bone tissue; tibia (T)
  Increase of cortical porosity: 54%
  Reduction of cortical thickness: 18%
Bone tissue; [3]
  BT/TV (trabecular bone volume): 21.72%
  Ct Por (cortical porosity): 2.90%
  Ct Th (cortical thickness): 951.48 μm
  ES/BS (eroded surface): 4.11%
  OS/BS (osteoid surface): 49.25%
  OV/BV (osteoid volume): 9.74%
  Obs/BS (osteoblast surface): 20.28%
  Tb N (trabecular number): 1.85 mm^−1
  Tb Th (trabecular thickness): 117.25 μm
Bone tissue; [4]
  BT/TV (trabecular bone volume): 19.69% and 16.65% and 25.74% and 24.78%
  Ct Por (cortical porosity): 2.76% and 2.94% (2×) and 2.95%
  Ct Th (cortical thickness): 1022.62 μm and 893.43 μm and 950.33 μm and 939.53 μm
  ES/BS (eroded surface): 4.62% and 4.76% and 4.21% and 2.85%
  OS/BS (osteoid surface): 54.84% and 43.57% and 43.63% and 54.97%
  OV/BV (osteoid volume): 11.24% and 9.61% and 8.14% and 9.95%
  Obs/BS (osteoblast surface): 16.16% and 21.25% and 18.46% and 25.25%
  Tb N (trabecular number): 1.52 mm^−1 and 1.79 mm^−1 and 2.13 mm^−1 and 1.97 mm^−1
  Tb Th (trabecular thickness): 129.22 μm and 93.20 μm and 120.52 μm and 126.07 μm
Bone tissue; vertebra
  Increase in osteoid surface: 37%
  Increase in osteoid volume: 213%
  Increase in the osteoblast surface: 24%
Bone tissue; vertebra (V)
  Reduction of cortical thickness and increase of cortical porosity: not in vertebra
Bone tissue; [5]
  BT/TV (trabecular bone volume): 20.95%
  Ct Por (cortical porosity): 1.07%
  Ct Th (cortical thickness): 675.50 μm
  ES/BS (eroded surface): 4.53%
  OS/BS (osteoid surface): 25.36%
  OV/BV (osteoid volume): 4.45%
  Obs/BS (osteoblast surface): 9.56%
  Tb N (trabecular number): 1.68 mm^−1
  Tb Th (trabecular thickness): 123.43 μm
Bone tissue; [6]
  BT/TV (trabecular bone volume): 15.15% and 20.23% and 23.56% and 24.86%
  Ct Por (cortical porosity): 1.49% and 1.45% and 0.41% and 0.92%
  Ct Th (cortical thickness): 707.43 μm and 629.35 μm and 740.87 μm and 624.35 μm
  ES/BS (eroded surface): 9.31% and 2.30% and 2.55% and 3.96%
  OS/BS (osteoid surface): 18.84% and 41.28% and 23.65% and 17.66%
  OV/BV (osteoid volume): 3.24% and 8.42% and 3.49% and 2.66%
  Obs/BS (osteoblast surface): 10.36% and 9.07% and 10.47% and 8.33%
  Tb N (trabecular number): 1.44 mm^−1 and 1.70 mm^−1 and 1.75 mm^−1 and 1.84 mm^−1
  Tb Th (trabecular thickness): 105.46 μm and 118.79 μm and 134.66 μm and 134.82 μm

## cyclo[4-(NH2—C2H4—NH—CO—O)Pro-Phg-DTrp-Lys-Tyr(4-Bzl)-Phe] [SOM230]
Somatostatin receptors
  Binding to somatostatin receptors: binds to all somatostatin receptors except SSTR4

B1: FGF23CTP: unique 75-mer COOH-terminal peptide of FGF-23, SEQ ID NO: 2 (peptide, listed as Homo sapiens)
chain: HTRSAEDDSERDPLNVLKPRARMTPAPASCSQELPSAEDNSPMASDPLGVVRGGRVNTHAGGTGPEGCRPFAKFI
[1]
  Transcript level changes in several organs (activity): active
[2]; 6 μg intravitreal, DF 28, P-Value 0.0375
  Proliferation score, Mean Difference (paired t-test, treated right eye vs PBS left eye): −3.172
[2]; intravitreal injection, b229 p=0.018, b476 paired t-test p=0.04
  Effect on proliferative component of retinal angiopathy / proliferation score: significantly inhibited; also recorded: reaches statistical significance
[2]; [7]
  avascular zone: 1 (7×) and 2 (4×) and 0 (3×) and 3 (7×) and 4 (4×) and 7 and 6 (2×) and 5
  blood vessel tufts: 6 (4×) and 2 (3×) and 4 (3×) and 1 (2×) and 3 and 5 (2×) and 0 (2×) and 7 (4×) and 10 (3×) and 14 (2×) and 13 and 11 and 9
  large clusters of prolif.: 0 (16×) and 1 (6×) and 2 (2×) and 3 (2×) and 4 (2×) and 5
  proliferation sum: 7 (2×) and 2 (3×) and 4 (4×) and 1 (2×) and 6 (4×) and 5 and 0 (2×) and 8 (2×) and 10 (2×) and 11 and 17 and 12 (2×) and 18 (2×) and 14
  tortuosity of vessels: 0 (8×) and 2 (7×) and 3 and 1 (9×) and 5 and 6 (2×) and 4
[2]; [8]
  Paired t-test avascular zone: Mean Difference: −0.034
  Paired t-test proliferation sum: Mean Difference: −2.724
  Paired t-test tortuosity of the vessels: Mean Difference: −0.517
